# In the supplement of paper PMC10307832:
# Experiments:
# Assay in all cases: relative viability (nuclei count vs DMSO), 5 days (fraction); higher = more cells survive
# [1] = compound: CCn1c(-c2nonc2N)nc2cnc(Oc3cccc(NC(=O)c4ccc(OCCN5CCOCC5)cc4)c3)cc21 + Cc1nc(Nc2ncc(C(=O)Nc3c(C)cccc3Cl)s2)cc(N2CCN(CCO)CC2)n1 [Dasatinib] (partner 0.075 µM)
# Method in brief: (§1)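 Dosing by pin tool came one day after lung cancer cell lines were seeded in 1536-well plates, using either one drug or a fixed anchor-drug dose plus five library-drug doses (not always all listed) in √10 steps. After 5 days, nuclei were counted on 4× images. Relative viability is treated-well nuclei count divided by vehicle-well nuclei count, and values are medians of duplicate plates.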
# [2] = compound: CCn1c(-c2nonc2N)nc2cnc(Oc3cccc(NC(=O)c4ccc(OCCN5CCOCC5)cc4)c3)cc21 + CS(=O)(=O)CCNCc1ccc(-c2ccc3ncnc(Nc4ccc(OCc5cccc(F)c5)c(Cl)c4)c3c2)o1 [Lapatinib] (partner 2 µM)
# Method in brief: as §1
# [3] = compound: CCC1=CN=CN=C1N2CCN(CC2)CC3=NC4=C(N3)C=C(C=C4)C(F)(F)F + CS(=O)(=O)CCNCc1ccc(-c2ccc3ncnc(Nc4ccc(OCc5cccc(F)c5)c(Cl)c4)c3c2)o1 [Lapatinib] (partner 2 µM)
# Method in brief: as §1
# [4] = compound: CCn1c(-c2nonc2N)nc2cnc(Oc3cccc(NC(=O)c4ccc(OCCN5CCOCC5)cc4)c3)cc21 + CC(=O)Nc1cccc(-n2c(=O)n(C3CC3)c(=O)c3c(Nc4ccc(I)cc4F)n(C)c(=O)c(C)c32)c1 [Trametinib] (partner 0.02 µM)
# Method in brief: as §1
Cell Line,relative viability ([1]; first compound 0.04 µM),relative viability ([1]; first compound 0.1265 µM),relative viability ([1]; first compound 0.4 µM),relative viability ([1]; first compound 1.265 µM),relative viability ([1]; first compound 4 µM),relative viability ([2]; first compound 0.04 µM),relative viability ([2]; first compound 0.1265 µM),relative viability ([2]; first compound 0.4 µM),relative viability ([2]; first compound 1.265 µM),relative viability ([2]; first compound 4 µM),relative viability ([3]; first compound 0.04 µM),relative viability ([3]; first compound 0.1265 µM),relative viability ([3]; first compound 0.4 µM),relative viability ([3]; first compound 1.265 µM),relative viability ([3]; first compound 4 µM),relative viability ([4]; first compound 0.04 µM),relative viability ([4]; first compound 0.1265 µM),relative viability ([4]; first compound 0.4 µM),relative viability ([4]; first compound 1.265 µM),relative viability ([4]; first compound 4 µM)
LXF-289,0.158,0.111,0.0564,0.0848,0.0678,1.04,1.02,0.856,0.737,0.645,1,0.853,0.845,0.974,0.899,0.761,0.75,0.685,0.667,0.754
RERF-LC-KJ,0.88,0.746,0.462,0.43,0.347,0.933,0.827,0.717,0.684,0.606,0.81,0.811,0.863,0.79,0.825,0.862,0.898,0.826,0.562,0.589
CAL-12T,0.39,0.43,0.267,0.276,0.157,1.25,0.817,0.849,–,0.685,–,0.667,0.677,0.707,0.574,0.354,0.363,0.372,0.346,0.345
COR-L 105,0.261,0.219,0.217,0.232,0.167,0.327,0.412,0.278,0.288,0.297,0.35,0.331,0.395,0.275,0.426,0.343,0.42,0.365,0.319,0.376
NCI-H2405,0.239,0.166,0.158,0.135,0.139,1.19,0.661,0.194,0.336,0.316,1.04,1.17,1.11,–,1.2,0.537,0.385,0.311,0.253,0.26
NCI-H2228,0.592,0.519,0.431,0.407,0.421,1.79,0.81,0.954,0.756,0.727,0.949,1.11,0.79,1.14,1.06,0.558,0.495,0.345,0.349,0.362
PC-14,0.221,0.173,0.174,0.158,0.115,0.343,0.227,0.232,0.264,0.283,0.34,0.264,0.304,0.246,0.329,0.632,0.379,0.468,0.426,0.396
NCI-H2087,0.866,0.673,0.544,0.558,0.63,–,0.693,0.871,0.499,0.677,1.07,0.963,1.08,0.914,0.818,0.209,0.293,0.203,0.228,0.231
SW 1573,0.597,0.319,0.21,0.246,0.166,1.21,0.904,0.685,0.627,0.353,1.12,0.949,1,1,1.08,0.716,0.577,0.478,0.229,0.19
NCI-H2085,0.307,0.308,0.396,0.251,0.223,0.865,0.75,0.684,0.602,0.714,0.713,0.704,0.797,0.571,0.784,0.634,0.57,0.521,0.574,0.535
NCI-H520,0.166,0.174,0.166,0.163,0.139,1,0.897,0.632,0.385,0.312,0.846,0.862,0.857,0.588,0.729,0.734,0.738,0.469,0.406,0.311
SK-LU-1,0.157,0.15,0.103,0.139,0.128,1.24,0.662,0.611,0.493,0.449,0.924,0.855,0.926,–,0.902,0.481,0.386,0.378,0.254,0.311
HCC-15,0.618,0.464,0.349,–,0.395,0.962,0.736,0.779,0.628,0.745,0.847,0.814,0.839,0.828,0.865,0.38,0.36,0.348,0.39,0.378
H3255,0.375,0.367,0.331,0.341,0.291,0.293,0.305,0.237,0.271,0.256,0.241,0.238,0.218,0.234,0.246,0.671,0.676,0.577,0.442,0.579
NCI-H1792,0.954,0.514,–,0.405,0.488,1,0.869,–,0.567,0.793,0.769,0.808,0.851,0.978,0.884,0.425,0.47,0.401,0.354,0.302
